Assay results published in patent publication EP4759814A1, “TRICYCLIC COMPOUND AND USE THEREOF AS MAT2A INHIBITOR” (SK Biopharmaceuticals Co., Ltd., priority 2023, dated 2025).

Assays:
[1] = Phase 1 clinical trials; cited from earlier work
MAT2A = target: T1, MAT2A (Homo sapiens, UniProt P31153); assay: MAT2A inhibitory activity, colorimetric phosphate detection (PiColorLock) enzyme assay; type: biochemical; settings: Test Condition 1 or 2 (not stated which per compound); absorbance at 630 nm
T1 construct: purchased BPS Bioscience (USA) 71401
T1 sequence (P31153 whole entry): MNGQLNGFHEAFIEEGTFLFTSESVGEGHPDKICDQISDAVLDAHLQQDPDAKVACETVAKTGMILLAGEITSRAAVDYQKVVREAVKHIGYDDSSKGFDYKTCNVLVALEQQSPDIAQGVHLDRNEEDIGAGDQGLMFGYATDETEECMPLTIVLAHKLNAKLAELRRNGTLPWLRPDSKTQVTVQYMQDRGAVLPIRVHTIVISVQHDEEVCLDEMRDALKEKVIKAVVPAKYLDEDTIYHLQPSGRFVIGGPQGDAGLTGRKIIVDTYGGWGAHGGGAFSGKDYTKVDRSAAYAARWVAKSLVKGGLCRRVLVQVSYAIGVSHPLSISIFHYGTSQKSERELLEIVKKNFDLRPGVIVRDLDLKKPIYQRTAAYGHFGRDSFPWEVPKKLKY
Summary of the method: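 Compound preincubated 30 min at room temperature with enzyme, then reacted 1 h with ATP and Met; phosphate read colorimetrically at 630 nm. Condition 1: top 50 µM, 12 ng/µL enzyme, 100 µM ATP, 80 µM Met. Condition 2: top 1 µM, 4 ng/µL enzyme, 300 µM ATP, 150 µM Met. Tris pH 8.0 buffer; IC50 by 4-parameter fit.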

[2] = system: HCT116 (MTAP del) cell line; assay: Cell proliferation inhibition in MTAP-deficient cancer cells, WST-1 assay; type: cell-based; settings: Homo sapiens, HCT-116, 120 hours of drug treatment, maximum concentration 10 µM, read-out: HCT116 MTAP^-/- (IC50, cell proliferation inhibited by 50%)
Summary of the method: (§1)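 HCT116 MTAP-deleted and isogenic MTAP wild-type cells (1,000 cells/well, 10% FBS RPMI1640) attached 24 h, then treated with 4-fold dilutions from 10 µM for 120 hours. WST-1 added 2 hours, absorbance at 450 nm, normalized to DMSO control as 100%; IC50 from 4-parameter dose-response fit.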

[3] = system: HCT116 (MTAP WT) cell line; assay: Cell proliferation inhibition in wild-type control cells, WST-1 assay; type: cell-based; settings: Homo sapiens, HCT-116, 120 hours of drug treatment, maximum concentration 10 µM, read-out: HCT116 WT (IC50, cell proliferation inhibited by 50%)
Summary of the method: as §1

IC50 (MAT2A) [nM]	IC50 [2] [nM]	IC50 [3] [nM]	SMILES	hepatotoxicity [1]
1 to 100	1 to 100	> 10000	Cc1ncccc1-n1c(=O)c2nccn2c2c(OCC3CC3)cc(Cl)cc21 [Example 103, 7-chloro-9-(cyclopropylmethoxy)-5-(2-methylpyridin-3-yl)imidazo[1,2-a]quinoxalin-4(5H)-one]	
1 to 100	1 to 100	> 10000	CNc1cc(Cl)cc2c1n1ccnc1c(=O)n2-c1cccnc1C [Example 105, 7-chloro-9-(methylamino)-5-(2-methylpyridin-3-yl)imidazo[1,2-a]quinoxalin-4(5H)-one]	
1 to 100	> 10000	> 10000	COc1ncccc1-n1c(=O)c2nccn2c2cc(Cl)c(Br)cc21 [Example 107, 7-bromo-8-chloro-5-(2-methoxypyridin-3-yl)imidazo[1,2-a]quinoxalin-4(5H)-one]	
1 to 100	1 to 100	> 10000	COc1cc(C(F)(F)F)cc2c1n1ccnc1c(=O)n2-c1cccnc1C [Example 113, 9-methoxy-5-(2-methylpyridin-3-yl)-7-(trifluoromethyl)imidazo[1,2-a]quinoxalin-4(5H)-one]	

The next lines start with the compound.

SMILES	IC50 (MAT2A) [nM]	IC50 [2] [nM]	IC50 [3] [nM]	hepatotoxicity [1]
COc1ccc(-c2c(Nc3ccccn3)[nH]c3c(C4=CCCCC4)c(-c4ccccc4)nn3c2=O)cc1 [AG-270]				hepatotoxicity associated with inhibition of UGT1A1
Cc1ncccc1-n1c(=O)c2nccn2c2c(F)cc(Cl)cc21 [Example 101, 7-chloro-9-fluoro-5-(2-methylpyridin-3-yl)imidazo[1,2-a]quinoxalin-4(5H)-one]	1 to 100	1 to 100	> 10000	
COc1cc(Cl)cc2c1n1ccnc1c(=O)n2-c1cccnc1C [Example 102, 7-chloro-9-methoxy-5-(2-methylpyridin-3-yl)imidazo[1,2-a]quinoxalin-4(5H)-one]	1 to 100	1 to 100	> 10000	
O=c1c2nccn2c2cc(Cl)c(Br)cc2n1-c1cccc2ncsc12 [Example 108, 5-(benzo[d]thiazol-7-yl)-7-bromo-8-chloroimidazo[1,2-a]quinoxalin-4(5H)-one]	1 to 100	100 to 1000	1000 to 10000	
O=c1c2nccn2c2cc(Cl)c(Br)cc2n1-c1cccc2[nH]ccc12 [Example 109, 7-bromo-8-chloro-5-(1H-indol-4-yl)imidazo[1,2-a]quinoxalin-4(5H)-one]	1 to 100	100 to 1000	> 10000	
CCc1ncccc1-n1c(=O)c2nccn2c2cc(Cl)c(C(F)(F)F)cc21 [Example 110, 8-chloro-5-(2-ethylpyridin-3-yl)-7-(trifluoromethyl)imidazo[1,2-a]quinoxalin-4(5H)-one]	1 to 100	> 10000	> 10000	
